The record followed here is paper PMC10343887, “Structural Optimization of BIPPO Analogs as Potent Antimalarials” (Molecules, 2023).

The test system of data set [1] is P. falciparum. As to the kind of experiment: Antimalarial screening against asexual blood stage P. falciparum. The class given is cell-based, Plasmodium falciparum. Conditions: for IC50: Plasmodium falciparum, potency against asexual blood stage of P. falciparum, average values n ≥ 2, s.d. < 0.3, read-out: P. fal pIC50 (converted); for fold decreased antimalarial potency compared to 3 / fold potency decrease compared with 30: P. falciparum; for fold decreased antimalarial potency compared to 3: relative to 3; for fold potency decrease compared with 30: relative to 30. The protocol: Previously, Howard et al. reported (sub)micromolar activity against P. falciparum for a series of BIPPO analogs with benzyl substituents. To further understand the structure–activity relationship (SAR) of this interesting scaffold, close analogs of 3 with substituents at R^1–R^4 positions were tested against P. falciparum and human MRC-5 cells as the control for non-specific toxicity (Table 1).
The assay for antimalarial activity was carried out as described in detail in Pereira et al..

Data set [2] can be described thus: Non-specific toxicity control on human MRC-5 cells. It is filed as cell-based.
Setting [3] is: human MRC-5 cells, average values n ≥ 2, s.d. < 0.3, read-out: MRC-5 pIC50 (converted).

Structures are written as SMILES. Like-named read-outs stand apart in the source and are kept apart here.

In the case of `CC(C)c1n[nH]c2c(=O)[nH]c(C(C)c3ccccc3)nc12` (racemic) [compound 13, (racemic)-3-Isopropyl-5-(1-phenylethyl)-1,6-dihydro-7H-pyrazolo[4,3-d]pyrimidin-7-one], the IC50 is 1.26 µM in data set [1] and more than 63.1 µM in data set [2] (setting [3]).
`COC(c1ccccc1)c1nc2c(C(C)C)n[nH]c2c(=O)[nH]1` (racemic) [compound 15, (racemic)-3-Isopropyl-5-(methoxy(phenyl)methyl)-1,6-dihydro-7H-pyrazolo[4,3-d]pyrimidin-7-one]: the “fold decreased antimalarial potency compared to 3” value in data set [1] is 5- to 25 fold. Further, the IC50 in data set [1] was 7.94 µM; in data set [2] (setting [3]), more than 63.1 µM.
Regarding `CC(C)c1nn(C)c2c(=O)[nH]c(Cc3ccccc3)nc12` [37a, 5-Benzyl-3-isopropyl-1-methyl-1,6-dihydro-7H-pyrazolo[4,3-d]pyrimidin-7-one], the IC50 in data set [1] was 10 µM; in data set [2] (setting [3]), more than 63.1 µM.
Take `CC(C)c1c2nc(Cc3ccccc3)[nH]c(=O)c2nn1C` [37b, 5-Benzyl-3-isopropyl-2-methyl-2,6-dihydro-7H-pyrazolo[4,3-d]pyrimidin-7-one]: the IC50 was 5.01 µM in data set [1] and more than 63.1 µM in data set [2] (setting [3]).
On to `CC(C)c1nn(C)c2c(=O)[nH]c(C34CC5CC(CC(C5)C3)C4)nc12` [38a, 5-(Adamantan-1-yl)-3-isopropyl-1-methyl-1,6-dihydro-7H-pyrazolo[4,3-d]pyrimidin-7-one], for which, in data set [1], the “fold potency decrease compared with 30” value is “more than 400 fold”. Also, the IC50 in data set [1] and in data set [2] (setting [3]) was more than 63.1 µM throughout.
For the molecule `CC(C)c1c2nc(C34CC5CC(CC(C5)C3)C4)[nH]c(=O)c2nn1C` [38b, 5-(Adamantan-1-yl)-3-isopropyl-2-methyl-2,6-dihydro-7H-pyrazolo[4,3-d]pyrimidin-7-one], in data set [1], the “fold potency decrease compared with 30” value is “more than 15 fold” and the IC50 is 2.51 µM. Besides, in data set [2] (setting [3]), the IC50 was more than 63.1 µM.
`CC(C)(C)c1n[nH]c2c(=O)[nH]c(Cc3ccccc3)nc12` [46a, 5-Benzyl-3-(tert-butyl)-1,6-dihydro-7H-pyrazolo[4,3-d]pyrimidin-7-one]: the IC50 is 1.58 µM in data set [1] and 39.8 µM in data set [2] (setting [3]).
With `O=c1[nH]c(Cc2ccccc2)nc2c(C3CCCC3)n[nH]c12` [46b, 5-Benzyl-3-cyclopentyl-1,6-dihydro-7H-pyrazolo[4,3-d]pyrimidin-7-one], the IC50 in data set [1] was 1.58 µM; in data set [2] (setting [3]), more than 63.1 µM.
The matching figures for `CC(C)c1n[nH]c2c(=O)[nH]c(Cc3ccccc3)nc12` [compound 3, 5-Benzyl-3-isopropyl-1,6-dihydro-7H-pyrazolo[4,3-d]pyrimidin-7-one]: 1.26 µM and more than 63.1 µM.
As for `CC(C)c1n[nH]c2c(=O)[nH]c(Cc3ccncc3)nc12` [compound 4, 3-Isopropyl-5-(pyridin-4-ylmethyl)-1,6-dihydro-7H-pyrazolo[4,3-d]pyrimidin-7-one], in data set [1], the “fold decreased antimalarial potency compared to 3” value is given as “six” and the IC50 is 7.94 µM. For the same molecule, the IC50 in data set [2] (setting [3]) is more than 63.1 µM.
The matching figures for `CC(C)c1n[nH]c2c(=O)[nH]c(-c3ccccc3)nc12` [compound 6, 3-Isopropyl-5-phenyl-1,6-dihydro-7H-pyrazolo[4,3-d]pyrimidin-7-one]: 5- to 25 fold, 31.6 µM and more than 63.1 µM.
For `CC(C)c1n[nH]c2c(=O)[nH]c(-c3ccc(N4CCN(C)CC4)cc3)nc12` [compound 7, 3-Isopropyl-5-(4-(4-methylpiperazin-1-yl)phenyl)-1,6-dihydro-7H-pyrazolo[4,3-d]pyrimidin-7-one], the IC50 in data set [1] was 7.94 µM; in data set [2] (setting [3]) it was more than 39.8 µM.
The matching figures for `CC(C)c1n[nH]c2c(=O)[nH]c(-c3ccc(N4CCCCC4)cc3)nc12` [compound 8, 3-Isopropyl-5-(4-(piperidin-1-yl)phenyl)-1,6-dihydro-7H-pyrazolo[4,3-d]pyrimidin-7-one]: more than 50.1 µM and more than 63.1 µM.
Take `CC(C)c1n[nH]c2c(=O)[nH]c(-c3cscn3)nc12` [compound 9, 3-Isopropyl-5-(thiazol-4-yl)-1,6-dihydro-7H-pyrazolo[4,3-d]pyrimidin-7-one]: the IC50 in data set [1] and in data set [2] (setting [3]) was more than 63.1 µM in each case.
`CC(C)c1n[nH]c2c(=O)[nH]c(-c3ccc(=O)n(C)c3)nc12` [compound 10, 3-Isopropyl-5-(1-methyl-6-oxo-1,6-dihydropyridin-3-yl)-1,6-dihydro-7H-pyrazolo[4,3-d]pyrimidin-7-one]: the IC50 in data set [1] and in data set [2] (setting [3]) was more than 63.1 µM each time.
Regarding `CC(C)c1n[nH]c2c(=O)[nH]c(-c3ccn(C)c(=O)c3)nc12` [compound 11, 3-Isopropyl-5-(1-methyl-2-oxo-1,2-dihydropyridin-4-yl)-1,6-dihydro-7H-pyrazolo[4,3-d]pyrimidin-7-one], the IC50 in data set [1] and in data set [2] (setting [3]) was more than 63.1 µM each time.
As to `CC(C)c1n[nH]c2c(=O)[nH]c(CCc3ccccc3)nc12` [compound 12, 3-Isopropyl-5-phenethyl-1,6-dihydro-7H-pyrazolo[4,3-d]pyrimidin-7-one], in data set [1], the “fold decreased antimalarial potency compared to 3” value is listed as 5- to 25 fold. Moreover, the IC50 was 6.31 µM in data set [1] and more than 63.1 µM in data set [2] (setting [3]).
With `CC(C)c1n[nH]c2c(=O)[nH]c(C(C)(C)c3ccccc3)nc12` [compound 14, 3-Isopropyl-5-(2-phenylpropan-2-yl)-1,6-dihydro-7H-pyrazolo[4,3-d]pyrimidin-7-one], the values for the IC50 in data set [1] and in data set [2] (setting [3]) were 1 µM and more than 63.1 µM, respectively.
`CC(C)c1n[nH]c2c(=O)[nH]c(C3(c4ccccc4)CC3)nc12` [compound 16, 3-Isopropyl-5-(1-phenylcyclopropyl)-1,6-dihydro-7H-pyrazolo[4,3-d]pyrimidin-7-one]: the “fold decreased antimalarial potency compared to 3” value in data set [1] is reported as 5- to 25 fold. The IC50 in data set [1] was 3.16 µM; in data set [2] (setting [3]), more than 63.1 µM.
As to `CC(C)c1n[nH]c2c(=O)[nH]c(C3(c4ccccc4)CCC3)nc12` [compound 17, 3-Isopropyl-5-(1-phenylcyclobutyl)-1,6-dihydro-7H-pyrazolo[4,3-d]pyrimidin-7-one], the IC50 in data set [1] was 1.58 µM; in data set [2] (setting [3]), 25.1 µM.
Turning to `CC(C)c1n[nH]c2c(=O)[nH]cnc12` [compound 18, 3-Isopropyl-1,6-dihydro-7H-pyrazolo[4,3-d]pyrimidin-7-one], the IC50 in data set [1] and in data set [2] (setting [3]) was more than 63.1 µM throughout.
On to `Cc1nc2c(C(C)C)n[nH]c2c(=O)[nH]1` [compound 19, 3-Isopropyl-5-methyl-1,6-dihydro-7H-pyrazolo[4,3-d]pyrimidin-7-one], for which the IC50 in data set [1] is 39.8 µM; in data set [2] (setting [3]) it was more than 63.1 µM.
The matching figures for `CC(C)c1nc2c(C(C)C)n[nH]c2c(=O)[nH]1` [compound 20, 3,5-Diisopropyl-1,6-dihydro-7H-pyrazolo[4,3-d]pyrimidin-7-one]: 3.98 µM and more than 63.1 µM.
The like results for `CCCCc1nc2c(C(C)C)n[nH]c2c(=O)[nH]1` [compound 21, 5-Butyl-3-isopropyl-1,6-dihydro-7H-pyrazolo[4,3-d]pyrimidin-7-one] were, in that order, 1.26 µM and more than 63.1 µM.
Consider `CC(C)c1n[nH]c2c(=O)[nH]c(C3CCCC3)nc12` [compound 22, 5-Cyclopentyl-3-isopropyl-1,6-dihydro-7H-pyrazolo[4,3-d]pyrimidin-7-one], for which the IC50 was 0.794 µM in data set [1] and more than 63.1 µM in data set [2] (setting [3]).
The matching figures for `CC(C)c1n[nH]c2c(=O)[nH]c(C3CCOCC3)nc12` [compound 24, 3-Isopropyl-5-(tetrahydro-2H-pyran-4-yl)-1,6-dihydro-7H-pyrazolo[4,3-d]pyrimidin-7-one]: 5.01 µM and more than 63.1 µM.
The matching figures for `CC(C)c1n[nH]c2c(=O)[nH]c(C3CCN(C)CC3)nc12` [compound 25, 3-Isopropyl-5-(1-methylpiperidin-4-yl)-1,6-dihydro-7H-pyrazolo[4,3-d]pyrimidin-7-one diformate]: more than 63.1 µM and more than 63.1 µM.
As to `CC(C)c1n[nH]c2c(=O)[nH]c([C@H]3CC[C@@H](O)CC3)nc12` [compound 26, cis-5-(4-Hydroxycyclohexyl)-3-isopropyl-1,6-dihydro-7H-pyrazolo[4,3-d]pyrimidin-7-one], the IC50 in data set [2] (setting [3]) is more than 63.1 µM.
As to `CC(C)c1n[nH]c2c(=O)[nH]c([C@H]3CC[C@H](O)CC3)nc12` [compound 27, trans-5-(4-Hydroxycyclohexyl)-3-isopropyl-1,6-dihydro-7H-pyrazolo [4,3-d]pyrimidin-7-one], the IC50 in data set [1] was 5.01 µM; in data set [2] (setting [3]), more than 63.1 µM.
Take `CC(C)c1n[nH]c2c(=O)[nH]c(C3CCNCC3)nc12` [compound 32, 3-Isopropyl-5-(piperidin-4-yl)-1,6-dihydro-7H-pyrazolo[4,3-d]pyrimidin-7-one]: the IC50 in data set [1] and in data set [2] (human) was more than 63.1 µM throughout.
